According to publication PMC9224473 (International Journal of Molecular Sciences, 2022):
≈ marks a conversion by molar mass, not a printed value. Like-named read-outs stand apart in the source and are kept apart here.

Key:
[1] = tested on: S. epidermidis ATCC 35984; assay: MIC, broth microdilution, standard strain; type: cell-based, Staphylococcus epidermidis; conditions: 35 °C; for MIC: Staphylococcus epidermidis, ATCC35984, 19 h
[2] = tested on: SW620 (human metastatic colon cancer); assay: MTT cytotoxicity assay; type: cell-based; conditions: mean SD
Experimental: (§1) The human cell lines SW480 (primary colon cancer), SW620 (lymph node metastatic colon cancer from the same patient as primary cancer cells), HCT116 (colon carcinoma), HepG2 (liver cancer), and HaCaT (immortalized keratinocytes) were obtained from the American Type Culture Collection (ATCC, Rockville, MD, USA). The SW480, SW620 and HCT116 cells were grown in MEM (ThermoSci, Waltham, MA, USA), HepG2 and HaCaT in DMEM High Glucose (Biowest SAS, Nuaillé, France) supplemented with 10% foetal bovine serum (FBS), HEPES (20 mM), and antibiotics (100 U mL^−1 of Penicillin and 100 μg mL^−1 of Streptomycin). The cells were incubated in a humidified incubator at 37 °C/5% CO2, until 80–90% confluence was reached.
The cell viability was assessed by using of MTT salt [3-(4,5-dimethylthiazol-2-yl)-2,5-diphenyltetrazolium bromide] converted by mitochondrial dehydrogenase, occurring in living cells. […] The untreated cells were used as the control.
(§2) Subsequently, the medium was removed and dimethyl sulfoxide (DMSO) with isopropanol (1:1) was added to dissolve the formazan crystals. The optical density was measured using UVM 340 reader (ASYS Hitech GmbH, Eugendorf, Austria) at a wavelength of 570 nm. The experiments were repeated three times. The cell viability was calculated as the percent of MTT reduced in treated cells versus control cells (untreated cells). The number of viable cells cultured without tested compounds was assumed as 100%. A decreased relative MTT level indicates decreased cell viability. The IC50 values were estimated using CompuSyn version 1.0.

[3] = tested on: HepG2 (human liver cancer); assay: MTT cytotoxicity assay; type: cell-based; conditions: mean SD
Experimental: as §1
(§3) The cell viability was assessed by using of MTT salt [3-(4,5-dimethylthiazol-2-yl)-2,5-diphenyltetrazolium bromide] converted by mitochondrial dehydrogenase, occurring in living cells. The cells were seeded in 96-well plates at a density of 1 × 10^4 cells per well and allowed to adhere for 24 h at 37 °C in a CO2 humidified incubator. […]. The untreated cells were used as the control.
as §2, with “After 72 h incubation, the medium was replaced with 200 µL per well of free-serum medium containing 0.5 mg mL^−1 MTT and incubated for 4 h at 37 °C in a CO2 humidified incubator. Subsequently,” for “Subsequently,”

[4] = tested on: SW480 (human primary colon cancer); assay: MTT cytotoxicity assay; type: cell-based; conditions: mean SD
Experimental: as §1, §3
as §2, with “After 72 h incubation, the medium was replaced with 200 µL per well of free-serum medium containing 0.5 mg mL^−1 MTT and incubated for 4 h at 37 °C in a CO2 humidified incubator. Subsequently,” for “Subsequently,”

[5] = tested on: HCT116 (human colon cancer); assay: MTT cytotoxicity assay; type: cell-based; conditions: mean SD
Experimental: as §1, §3
as §2, with “After 72 h incubation, the medium was replaced with 200 µL per well of free-serum medium containing 0.5 mg mL^−1 MTT and incubated for 4 h at 37 °C in a CO2 humidified incubator. Subsequently,” for “Subsequently,”

[6] = tested on: HaCaT (human immortal keratinocyte cell line); assay: MTT cytotoxicity assay; type: cell-based; conditions: 72 h, mean SD, read-out: IC50 HaCaT (normal cells)
Experimental: as §1, §3
as §2, with “After 72 h incubation, the medium was replaced with 200 µL per well of free-serum medium containing 0.5 mg mL^−1 MTT and incubated for 4 h at 37 °C in a CO2 humidified incubator. Subsequently,” for “Subsequently,”

[7] = tested on: S. epidermidis ATCC 12228; assay: MIC, broth microdilution, standard strain; type: cell-based, Staphylococcus epidermidis; conditions: 35 °C; for MIC: Staphylococcus epidermidis, ATCC12228, 19 h
E. coli ATCC 25922 = assay: MIC, broth microdilution, standard strain; type: cell-based, Escherichia coli; conditions: 35 °C; for MIC: Escherichia coli, ATCC25922, 19 h
S. aureus ATCC 6538 = assay: MIC, broth microdilution, standard strain; type: cell-based, Staphylococcus aureus; conditions: 35 °C; for MIC: Staphylococcus aureus, ATCC6538, 19 h
[8] = tested on: standard bacteria strains; assay: Antimicrobial screening (MIC), standard bacteria strains; type: cell-based; conditions: MIC evaluation
Experimental: Obtained compounds were examined for antimicrobial potency. Firstly, all of them were screened for their minimal inhibitory concentrations (MICs). A suitable set of bacteria was used, including representative standard Gram-positive and Gram-negative rods (Table 2 and Table 3). For clarity, results are presented for menthol and thymol derivatives separately.
The antimicrobial assays were conducted using reference strains of bacteria derived from international microbe collections: American Type Culture Collection (ATCC) and National Collection of Type Culture (NCTC). The following standard strains of bacteria were used: Gram-positive—Staphylococcus aureus NCTC 4163, Staphylococcus aureus ATCC 25923, Staphylococcus aureus ATCC 6538, Staphylococcus aureus ATCC 29213, Staphylococcus epidermidis ATCC 12228, Staphylococcus epidermidis ATCC 35984, Gram-negative: Escherichia coli ATCC 25922, Pseudomonas aeruginosa ATCC 15442. […] Antimicrobial activity was examined by the Minimal Inhibitory Concentration (MIC) method under standard procedures provided by CLSI with some modifications. MIC was determined by the two-fold serial broth microdilution method in 96-well microtitration plates using Mueller–Hinton II broth medium (Becton Dickinson, Franklin Lakes, NJ, USA). The final inoculum of all studied bacteria was 10^6 CFU/mL (colony forming unit per millilitre). The stock solution of tested compounds was prepared in dimethyl sulfoxide (DMSO) and diluted to a maximum of 1% of solvent content with a sterile medium.

P. aeruginosa ATCC 15442 = assay: MIC, broth microdilution, standard strain; type: cell-based, Pseudomonas aeruginosa; conditions: 35 °C; for MIC: Pseudomonas aeruginosa, ATCC15442, 19 h
S. aureus ATCC 29213 = assay: MIC, broth microdilution, standard strain; type: cell-based, Staphylococcus aureus; conditions: 35 °C; for MIC: Staphylococcus aureus, ATCC29213, 19 h
S. aureus NCTC 4163 = assay: MIC, broth microdilution, standard strain; type: cell-based, Staphylococcus aureus; conditions: 35 °C; for MIC: Staphylococcus aureus, NCTC4163, 19 h
S. aureus ATCC 25923 = assay: MIC, broth microdilution, standard strain; type: cell-based, Staphylococcus aureus; conditions: 35 °C; for MIC: Staphylococcus aureus, ATCC25923, 19 h
S. epidermidis KR 4243 = assay: MIC, broth microdilution, clinical strain; type: cell-based, Staphylococcus epidermidis; conditions: Staphylococcus epidermidis, KR4243, 19 h, 35 °C
S. aureus T 5591 = assay: MIC, broth microdilution, clinical strain; type: cell-based, Staphylococcus aureus; conditions: Staphylococcus aureus, T5591, 19 h, 35 °C
E. coli 520 = assay: MIC, broth microdilution, clinical strain; type: cell-based, Escherichia coli; conditions: Escherichia coli, 520, 19 h, 35 °C
S. aureus T 5595 = assay: MIC, broth microdilution, clinical strain; type: cell-based, Staphylococcus aureus; conditions: Staphylococcus aureus, T5595, 19 h, 35 °C
E. coli 600 = assay: MIC, broth microdilution, clinical strain; type: cell-based, Escherichia coli; conditions: Escherichia coli, 600, 19 h, 35 °C
S. pasteuri KR 4358 = assay: MIC, broth microdilution, clinical strain; type: cell-based, Staphylococcus pasteuri; conditions: Staphylococcus pasteuri, KR4358, 19 h, 35 °C
P. aeruginosa 659 = assay: MIC, broth microdilution, clinical strain; type: cell-based, Pseudomonas aeruginosa; conditions: Pseudomonas aeruginosa, 659, read-out: MIC P. aeruginosa 659, 19 h, 35 °C
E. coli 510 = assay: MIC, broth microdilution, clinical strain; type: cell-based, Escherichia coli; conditions: Escherichia coli, 510, 19 h, 35 °C

Row | Molecule | MIC [1] | IC50 ([2]; Homo sapiens, SW-620, 72 h) | IC50 ([3]; Homo sapiens, HepG2, 72 h) | IC50 ([4]; Homo sapiens, SW480, 72 h) | IC50 ([5]; Homo sapiens, HCT-116, 72 h) | IC50 ([6]; Homo sapiens, HaCaT) | MIC [7] | MIC (E. coli ATCC 25922) | MIC (S. aureus ATCC 6538) | Antimicrobial activity (in words) [8] | MIC (P. aeruginosa ATCC 15442) | MIC (S. aureus ATCC 29213) | MIC (S. aureus NCTC 4163) | MIC (S. aureus ATCC 25923) | other results
1 | Cc1ccc(C(C)C)c(OC(=O)CCCCCOC(=O)c2cn(C3CC3)c3cc(N4CCN(CCCCCC(=O)Oc5cc(C)ccc5C(C)C)CC4)c(F)cc3c2=O)c1 [Compound 16] | 128 µg/mL (≈ 155 µM) | 49.6 ± 7 µM | 41.8 ± 2.5 µM | 29.5 ± 1.9 µM | 30.5 ± 2.3 µM | 64.9 ± 5.1 µM | 128 µg/mL (≈ 155 µM) | > 256 µg/mL | 64 µg/mL (≈ 77.7 µM) | rather inactive | > 256 µg/mL | 256 µg/mL (≈ 311 µM) | 128 µg/mL (≈ 155 µM) | 128 µg/mL (≈ 155 µM) | 
2 | 2-(2-isopropyl-5-methylphenoxy)-2-oxobutyl-1-cyclopropyl-6-fluoro-7-{4-[2-(2-isopropyl-5-methylphenoxy)-2-oxobutyl]piperazin-1-yl}-4-oxo-1,4-dihydroquinoline-3-carboxylate [Compound 15] |  |  |  |  |  |  |  |  |  | rather inactive |  |  |  |  | MIC S. epidermidis ATCC 35984 ([1]; 19 h): 128 µg/mL; IC50 ([2]; 72 h): 57.4 ± 3.6 µM; IC50 ([3]; 72 h): 61.8 ± 1.5 µM; IC50 ([4]; 72 h): 40.8 ± 4.2 µM; IC50 ([5]; 72 h): 48.2 ± 5.3 µM; IC50 [6]: 67.1 ± 4.6 µM; MIC S. epidermidis ATCC 12228 ([7]; 19 h): 128 µg/mL; MIC E. coli ATCC 25922 (E. coli ATCC 25922; 19 h): 128 µg/mL; MIC S. aureus ATCC 6538 (S. aureus ATCC 6538; 19 h): 128 µg/mL; MIC P. aeruginosa ATCC 15442 (P. aeruginosa ATCC 15442; 19 h): >256 µg/mL; MIC S. aureus ATCC 29213 (S. aureus ATCC 29213; 19 h): 256 µg/mL; MIC S. aureus NCTC 4163 (S. aureus NCTC 4163; 19 h): 64 µg/mL; MIC S. aureus ATCC 25923 (S. aureus ATCC 25923; 19 h): 64 µg/mL
3 | CC(C)[C@@H]1CC[C@@H](C)C[C@H]1OC(=O)CN1CCN(c2cc3c(cc2F)c(=O)c(C(=O)O)cn3C2CC2)CC1 [Compound 2, 1-cyclopropyl-6-fluoro-7-{4-[2-((1R,2S,5R)-2-isopropyl-5-methylcyclohexyloxy)-2-oxoethyl]piperazin-1-yl}-4-oxo-1,4-dihydroquinoline-3-carboxylic acid] | 16 µg/mL (≈ 30.3 µM) | 26.7 ± 0.2 µM | 16.5 ± 0.4 µM | 36 ± 2.9 µM | 32.3 ± 1.5 µM | 25.7 ± 3 µM | 16 µg/mL (≈ 30.3 µM) | 8 µg/mL (≈ 15.2 µM) | 16 µg/mL (≈ 30.3 µM) |  | 128 µg/mL (≈ 243 µM) | 16 µg/mL (≈ 30.3 µM) | 16 µg/mL (≈ 30.3 µM) | 16 µg/mL (≈ 30.3 µM) | MIC (S. epidermidis KR 4243): 16 µg/mL (≈ 30.3 µM); MIC (S. aureus T 5591): 16 µg/mL (≈ 30.3 µM); MIC (E. coli 520): 16 µg/mL (≈ 30.3 µM); MIC (S. aureus T 5595): 16 µg/mL (≈ 30.3 µM); MIC (E. coli 600): 16 µg/mL (≈ 30.3 µM); MIC (S. pasteuri KR 4358): 16 µg/mL (≈ 30.3 µM); MIC (P. aeruginosa 659): 128 µg/mL (≈ 243 µM); MIC (E. coli 510): > 256 µg/mL
